Test results: paper PMC10508484, “Development and application of a PBPK modeling strategy to support antimalarial drug development” (CPT: Pharmacometrics & Systems Pharmacology, 2023)
Read-outs that look alike come from different tables or passages of the source.

Experiments:
[1] = In vitro flags for victim and perpetrator properties conferring DDI liability; assay type: in vitro ADME, human; conditions: in vitro flag, mainly based on in vitro determinations
[2] = cited from earlier work
[3] = tested on: Caco-2 cells; conditions: Caco-2; cited from earlier work
[4] = cited from earlier work; remark: listed apart in the source
[5] = target: T1, CYP2D6 (Homo sapiens, UniProt P10635); test: CYP2D6 inhibition
T1 sequence (P10635 whole entry): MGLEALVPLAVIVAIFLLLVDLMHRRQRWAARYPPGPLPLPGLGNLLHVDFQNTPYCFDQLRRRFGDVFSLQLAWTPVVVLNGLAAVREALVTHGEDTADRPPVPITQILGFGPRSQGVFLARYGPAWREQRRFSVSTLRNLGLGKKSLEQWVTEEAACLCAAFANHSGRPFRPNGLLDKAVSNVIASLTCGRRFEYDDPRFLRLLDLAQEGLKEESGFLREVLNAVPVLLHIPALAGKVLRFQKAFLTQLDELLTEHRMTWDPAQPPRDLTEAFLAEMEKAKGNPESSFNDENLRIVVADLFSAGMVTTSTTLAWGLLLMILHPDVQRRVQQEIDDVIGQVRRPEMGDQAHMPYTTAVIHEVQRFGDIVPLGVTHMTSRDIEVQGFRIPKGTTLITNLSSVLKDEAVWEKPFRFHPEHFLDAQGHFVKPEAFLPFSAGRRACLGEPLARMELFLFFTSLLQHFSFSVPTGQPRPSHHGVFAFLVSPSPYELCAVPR

[6] = target: T2, CYP2C8 (Homo sapiens, UniProt P10632); test: Metabolism by CYP2C8 (CLint, fm); conditions: for fmCYP2C8: fraction metabolised used in the PBPK model
T2 sequence (P10632 1-490): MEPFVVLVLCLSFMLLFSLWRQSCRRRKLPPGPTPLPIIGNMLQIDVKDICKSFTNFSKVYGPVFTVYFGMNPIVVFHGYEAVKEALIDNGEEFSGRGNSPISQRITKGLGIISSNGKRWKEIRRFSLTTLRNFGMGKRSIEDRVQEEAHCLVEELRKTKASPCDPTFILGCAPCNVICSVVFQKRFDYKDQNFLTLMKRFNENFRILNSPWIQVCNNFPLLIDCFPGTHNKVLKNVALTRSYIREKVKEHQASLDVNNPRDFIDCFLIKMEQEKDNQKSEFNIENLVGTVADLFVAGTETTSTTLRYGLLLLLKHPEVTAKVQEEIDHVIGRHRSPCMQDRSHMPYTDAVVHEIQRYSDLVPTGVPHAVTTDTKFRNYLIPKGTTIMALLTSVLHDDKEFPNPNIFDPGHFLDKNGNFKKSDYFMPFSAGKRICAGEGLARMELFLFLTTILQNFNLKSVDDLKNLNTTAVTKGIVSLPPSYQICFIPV
Text: (§1) In nearly all cases the fraction of systemic elimination metabolised by a given enzyme (fm) determined in vitro was unavailable in the literature.

[7] = ref Charman et al., 2020 1; cited from earlier work
[8] = PBPK input; ref atovaquone oral bioavailability Lavelle et al., 1994 17; chloroquine Walker et al., 1987 29; doxycycline Fabre et al., 1966 45, Saivin et al., 1988 46; proguanil Ke et al., 2014 64; pyronaridine mass balance study Morris et al., 2015 72; cited from earlier work
[9] = measured (0.4 mg/mL protein where stated); ref Charman et al., 2020 1; cited from earlier work
[10] = In vivo clearance (CL IV, CL PO, CL renal, fe); conditions: chloroquine model
[11] = target: CYP3A4 (Homo sapiens, UniProt P08684)
Sequence of CYP3A4 (P08684 whole entry): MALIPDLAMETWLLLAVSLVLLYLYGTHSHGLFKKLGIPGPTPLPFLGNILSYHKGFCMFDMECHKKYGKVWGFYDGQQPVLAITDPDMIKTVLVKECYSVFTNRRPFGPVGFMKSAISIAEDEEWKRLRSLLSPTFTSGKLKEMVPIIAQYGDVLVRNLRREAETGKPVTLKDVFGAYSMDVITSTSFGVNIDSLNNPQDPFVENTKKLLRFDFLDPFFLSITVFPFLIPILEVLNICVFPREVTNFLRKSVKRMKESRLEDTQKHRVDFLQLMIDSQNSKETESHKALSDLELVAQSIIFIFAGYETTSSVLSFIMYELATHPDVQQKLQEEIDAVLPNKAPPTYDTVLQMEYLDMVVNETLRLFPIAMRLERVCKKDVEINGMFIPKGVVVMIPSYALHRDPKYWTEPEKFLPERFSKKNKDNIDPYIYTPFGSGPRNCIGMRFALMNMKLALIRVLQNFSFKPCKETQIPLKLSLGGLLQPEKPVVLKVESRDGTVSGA
Text: as §1

[12] = tested on: CYP2B6; test: Metabolism by CYP2B6 (CLint, Vmax, Km, fm); assay type: in vitro ADME, human
Text: as §1

[13] = target: T1, CYP2D6; test: Metabolism by CYP2D6 (CLint, fm)
Text: as §1

[14] = tested on: CYP1A2; test: Metabolism by CYP1A2 (CLint, fm); assay type: in vitro ADME, human
Text: as §1

[15] = in vitro; conditions: human, plasma
[16] = Blood to plasma ratio (B:P); conditions: PBPK input; unpublished (in-house) data
[17] = tested on: CYP2C9; conditions: ref mefloquine Karbwang et al., 1988 58; tafenoquine Charman et al., 2020 1; cited from earlier work
[18] = cited from earlier work; remark: listed apart in the source
[19] = PBPK input, ref amodiaquine, DEAQ Winstanley et al., 1987 9, atovaquone Rolan et al., 1997 14, azithromycin Lalak et al., 1993 23, carboxyprimaquine Mihaly et al., 1985 26, chloroquine Walker et al., 1987 29, DHA EMA Website, 44, doxycycline Raghuram et al., 1982 48, Nguyen et al., 1989 49, mefloquine Schwartz et al., 1982 57, primaquine White, 1985 62, proguanil Jeppesen et al., 1997 34, pyrimeth
[20] = retrograde calculations from CL PO, blood
[21] = fraction metabolised used in the PBPK model
[22] = clinically observed oral (in vivo) clearance, pyronaridine: blood, ref amodiaquine Winstanley et al., 1987 9, DEAQ Akande et al., 2015 8, Scarsi et al., 2014 35, Tarning et al., 2012 36, Orrell et al., 2008 37, DHA Na-Bangchang et al., 2004 42, lumefantrine Lefevre et al., 2002 52, Hoglund et al., 2015 53, mefloquine Charles et al., 2007 56, proguanil Jeppesen et al., 1997 34, pyronaridine Jittama

## CCN(CC)Cc1cc(Nc2ccnc3cc(Cl)ccc23)ccc1O [Amodiaquine, amodiaquine]
[1]
  Risk as a victim: Substrate of CYP2C8
[2]; in vivo, 540 mg
  AUC Obs: 331 ng·h/mL
[3]
  Caco-2 (Papp A-B): 9.8 10-6 cm/s
[4]; in vivo, po
  CL PO: 2500 L/h
[4]; in vivo
  CL renal: 3.5 L/h
[5]
  Ki: 0.45 µM

## CCN(CC)CCCC(C)Nc1ccnc2cc(Cl)ccc12 (centres unmarked) [Chloroquine, chloroquine]
[1]
  Risk as a perpetrator: CYP2D6 inhibitor
  Risk as a victim: Substrate of CYP2C8 and CYP3A4; renally cleared
[6]
  fmCYP2C8: 11%
[6]; human
  CLint CYP2C8: 0.27 µL/min/pmol
[2]; 300 mg infusion (over 23.5 mins) SD, ref Gustafsson et al., 1983 16
  Cmax Obs: 837 ng/mL
[2]; 300 mg soln. SD, ref Gustafsson et al., 1983 16
  Cmax Obs: 73.0 ng/mL
[2]; 300 mg tablet SD, ref Gustafsson et al., 1983 16
  Cmax Obs: 76.0 ng/mL
[7]
  B:P: 3.5
[8]
  fa: 1
[4]; [19]
  CL renal: 24.78 L/h
[4]; clinically observed, ref atovaquone Lavelle et al., 1994 17, chloroquine Walker et al., 1987 29, Gustafsson et al., 1983 30, doxycycline Raghuram et al., 1982 48, Nguyen et al., 1989 49, primaquine Mihaly et al., 1985 26, quinine White et al., 1983 77, Paintaud et al., 1993 78
  CL IV: 39.84 L/h
[9]
  fumic: 0.5
[10]
  renal clearance share of elimination: 57%

## COc1ccc2nc3cc(Cl)ccc3c(Nc3cc(CN4CCCC4)c(O)c(CN4CCCC4)c3)c2n1 [Pyronaridine, pyronaridine]
[1]
  Risk as a perpetrator: CYP2D6 and P‐gp inhibitor
  Risk as a victim: Substrate of CYP1A2, CYP2B6, CYP2C8, CYP2D6 and CYP3A4
[6]; derived from in vivo clearance by retrograde calculations
  CLint CYP2C8: 0.19 µL/min/pmol
[6]
  fmCYP2C8: 4.8%
[11]
  fmCYP3A4: 61.1%
[11]; microsomes
  CLint CYP3A4: 0.42 µL/min/pmol
[12]; fraction metabolised used in the PBPK model (artemether: without induction)
  fmCYP2B6: 7.7%
[12]; [20]
  CLint CYP2B6: 0.47 µL/min/pmol
[13]; [21]
  fmCYP2D6: 20.6%
[13]; retrograde calculations
  CLint CYP2D6: 1.33 µL/min/pmol
[14]; [21]
  fmCYP1A2: 4.7%
[14]; [20]
  CLint CYP1A2: 0.09 µL/min/pmol
[15]
  fraction unbound: 0.058
[8]
  fa: 0.74
[4]; [19]
  CL renal: 0.16 L/h
[4]; [22]
  CL PO: 22.1 L/h
[4]; ref atovaquone Rolan et al., 1997 14, mefloquine Schwartz et al., 1982 57, primaquine White, 1985 62, proguanil (extensive metabolisers) Jeppesen et al., 1997 34, pyronaridine Wattanavijitkul, 2010 74, sulfadoxine assumed with Edstein, 1987 83
  fe (fraction excreted unchanged in urine): 1%
[16]
  B:P: 1.5

## COc1cc(C)c2c(Oc3cccc(C(F)(F)F)c3)c(OC)cc(NC(C)CCCN)c2n1 (centres unmarked) [Tafenoquine, tafenoquine]
[1]
  Risk as a perpetrator: CYP3A4 and CYP2C9 inhibitor
[17]
  Ki: 10 µM
[2]; 300 mg SD, 0-72 h, ref Green et al., 2014 45
  AUC Obs: 10611 ng·h/mL
[2]; 300 mg SD, ref Green et al., 2014 45
  Cmax Obs: 186 ng/mL
[2]; 400 mg QD (3 days), 0-72 h, ref Green et al., 2014 45
  AUC Obs: 41896 ng·h/mL
[2]; 400 mg QD (3 days), ref Green et al., 2014 45
  Cmax Obs: 724 ng/mL
[2]; 600 mg SD, 0-72 h, ref Green et al., 2014 45
  AUC Obs: 22986 ng·h/mL
[2]; 600 mg SD, ref Green et al., 2014 45
  Cmax Obs: 422 ng/mL
[18]; PBPK input, ref atovaquone Mepron Prescribing Information, 2008, Nixon et al., 2013 13, Rolan et al., 1997 14, azithromycin Foulds et al., 1990 20, chloroquine Ofori-Adjei et al., 1986 27, Walker et al., 1983 28, DHA Batty et al., 2004 41 (healthy volunteers), lumefantrine CDER submission 22-269, proguanil Wattanagoon et al., 1987 63, tafenoquine Dow et al., 2020 84
  fu: 0.005
[18]; depending on the methodology used, ref literature
  fu, range reported in the literature: 0.0007 to 0.11
[18]; ref amodiaquine, DEAQ Hietala, 2009 2, atovaquone Nixon et al., 2013 13, DHA Batty et al., 2004 41, mefloquine, tafenoquine (also AGP) Zsila et al., 2008 54
  Main binding protein: HSA
[7]
  B:P: 1.3
[4]; [22]
  CL PO: 3.08 L/h
